Test system: human neutrophils
Type: cell-based

With CCCCCCCCCCCCCC(=O)O[C@@H]1[C@@H](C)[C@@]2(O)[C@@H](C=C(CO)C[C@]3(O)C(=O)C(C)=C[C@@H]23)[C@@H]2C(C)(C)[C@]12OC(C)=O [PMA, phorbol 12-myristate 13-acetate] the “NET formation (DNA staining)” value was “abundant lattices of extracellular NET-DNA filaments”.
